Measurements taken from publication PMC5218480 (PLoS ONE, 2017).

System: MV-4-11 cells
Test: Gene expression microarray analysis (Affymetrix PrimeView) and GSEA
Type: cell-based, human
Set-up: RFU PODN (11730768_x_at) / Fold change /veh PODN (11730768_x_at) / RFU LINC00158 (11744669_a_at) / Fold change /veh LINC00158 (11744669_a_at) / RFU DUSP10 (11751237_a_at) / Fold change /veh DUSP10 (11751237_a_at) / RFU ID3 (11757404_x_at) / Fold change /veh ID3 (11757404_x_at) / RFU PLEKHG5 (11737974_s_at) / Fold change /veh PLEKHG5 (11737974_s_at) / RFU LRRC4B (11730491_at) / Fold change /veh LRRC4B (11730491_at) / RFU GIMAP4 (11747438_a_at) / Fold change /veh GIMAP4 (11747438_a_at) / RFU KRT8 (11758183_x_at) / Fold change /veh KRT8 (11758183_x_at) / RFU CNN1 (11734310_a_at) / Fold change /veh CNN1 (11734310_a_at) / RFU VPS37D (11726825_at) / Fold change /veh VPS37D (11726825_at) / RFU C10orf10 (11716522_x_at) / Fold change /veh C10orf10 (11716522_x_at) / RFU KIR2DL2 /// KIR2DL4 /// KIR2DL5A /// KIR2DL5B /// KIR2DS1 /// KIR2DS2 /// KIR2DS3 /// KIR2DS4 /// KIR3DL3 /// KIR3DL3 /// KIR3DS1 (11738374_at) / Fold change /veh KIR2DL2 /// KIR2DL4 /// KIR2DL5A /// KIR2DL5B /// KIR2DS1 /// KIR2DS2 /// KIR2DS3 /// KIR2DS4 /// KIR3DL3 /// KIR3DL3 /// KIR3DS1 (11738374_at) / RFU C1QL1 (11718748_at) / Fold change /veh C1QL1 (11718748_at) / RFU TMPRSS4 (11747572_a_at) / Fold change /veh TMPRSS4 (11747572_a_at) / RFU HAMP (11756126_x_at) / Fold change /veh HAMP (11756126_x_at) / RFU RNFT2 (11725882_a_at) / Fold change /veh RNFT2 (11725882_a_at) / RFU NR4A2 (11747474_a_at) / Fold change /veh NR4A2 (11747474_a_at) / RFU ABCC12 (11746883_a_at) / Fold change /veh ABCC12 (11746883_a_at) / RFU TMEM136 (11760407_x_at) / Fold change /veh TMEM136 (11760407_x_at) / RFU CLDN22 /// WWC2 (11732394_at) / Fold change /veh CLDN22 /// WWC2 (11732394_at) / RFU HLA-DPB1 (11760878_x_at) / Fold change /veh HLA-DPB1 (11760878_x_at) / RFU SPINT1 (11716480_a_at) / Fold change /veh SPINT1 (11716480_a_at) / RFU GAP43 (11754022_s_at) / Fold change /veh GAP43 (11754022_s_at) / RFU A4GNT (11735810_at) / Fold change /veh A4GNT (11735810_at) / RFU PRB3 (11715151_x_at) / Fold change /veh PRB3 (11715151_x_at) / RFU TUBB4B (11761932_at) / Fold change /veh TUBB4B (11761932_at) / RFU CAPN14 (11732068_a_at) / Fold change /veh CAPN14 (11732068_a_at) / RFU TMCC2 (11721928_a_at) / Fold change /veh TMCC2 (11721928_a_at) / RFU IRGQ (11745062_a_at) / Fold change /veh IRGQ (11745062_a_at) / RFU FAM174B (11720279_a_at) / Fold change /veh FAM174B (11720279_a_at) / RFU TMPRSS4 (11748680_a_at) / Fold change /veh TMPRSS4 (11748680_a_at) / RFU FAM212B (11763350_a_at) / Fold change /veh FAM212B (11763350_a_at) / RFU PLEKHG5 (11743358_a_at) / Fold change /veh PLEKHG5 (11743358_a_at) / RFU ZSCAN30 (11745921_a_at) / Fold change /veh ZSCAN30 (11745921_a_at) / RFU CMKLR1 (11741424_a_at) / Fold change /veh CMKLR1 (11741424_a_at) / RFU LOC101060620 /// MAPK8IP1 (11723275_at) / Fold change /veh LOC101060620 /// MAPK8IP1 (11723275_at) / RFU SPTSSB (11747773_x_at) / Fold change /veh SPTSSB (11747773_x_at) / RFU PRSS12 (11739890_at) / Fold change /veh PRSS12 (11739890_at) / RFU BIN1 (11741810_x_at) / Fold change /veh BIN1 (11741810_x_at) / RFU WNT11 (11732464_a_at) / Fold change /veh WNT11 (11732464_a_at) / RFU C10orf10 (11716521_a_at) / Fold change /veh C10orf10 (11716521_a_at) / RFU C5orf56 (11738089_at) / Fold change /veh C5orf56 (11738089_at) / RFU CYB561 (11721691_x_at) / Fold change /veh CYB561 (11721691_x_at) / RFU ANKRD19P (11752326_a_at) / Fold change /veh ANKRD19P (11752326_a_at) / RFU OR2T12 /// OR2T33 /// OR2T8 (11738714_s_at) / Fold change /veh OR2T12 /// OR2T33 /// OR2T8 (11738714_s_at) / RFU VCAN (11748164_a_at) / Fold change /veh VCAN (11748164_a_at) / RFU JSRP1 (11732532_at) / Fold change /veh JSRP1 (11732532_at) / RFU KRTAP10-11 (11738290_x_at) / Fold change /veh KRTAP10-11 (11738290_x_at) / RFU MYO3A (11730013_a_at) / Fold change /veh MYO3A (11730013_a_at) / RFU EBF3 (11725865_a_at) / Fold change /veh EBF3 (11725865_a_at) / RFU CAMK2N1 (11719241_x_at) / Fold change /veh CAMK2N1 (11719241_x_at) / RFU C5orf56 (11738088_a_at) / Fold change /veh C5orf56 (11738088_a_at) / RFU OLFML3 (11715873_a_at) / Fold change /veh OLFML3 (11715873_a_at) / RFU LOC100653217 /// NTM (11731650_a_at) / Fold change /veh LOC100653217 /// NTM (11731650_a_at) / RFU MAPK11 (11762145_a_at) / Fold change /veh MAPK11 (11762145_a_at) / RFU FIZ1 (11724087_x_at) / Fold change /veh FIZ1 (11724087_x_at) / RFU OASL (11726364_x_at) / Fold change /veh OASL (11726364_x_at) / RFU SOX15 (11748057_x_at) / Fold change /veh SOX15 (11748057_x_at) / RFU CD79A (11719716_a_at) / Fold change /veh CD79A (11719716_a_at) / RFU HIST1H1D (11736915_at) / Fold change /veh HIST1H1D (11736915_at) / RFU CASKIN2 (11723855_a_at) / Fold change /veh CASKIN2 (11723855_a_at) / RFU LOC730098 (11760151_x_at) / Fold change /veh LOC730098 (11760151_x_at) / RFU OR4N2 (11742367_at) / Fold change /veh OR4N2 (11742367_at) / RFU PRRT2 (11749266_a_at) / Fold change /veh PRRT2 (11749266_a_at) / RFU SNX32 (11753110_a_at) / Fold change /veh SNX32 (11753110_a_at) / RFU CDHR5 (11726645_a_at) / Fold change /veh CDHR5 (11726645_a_at) / RFU RCAN1 (11760418_a_at) / Fold change /veh RCAN1 (11760418_a_at) / RFU FAM167A (11723789_a_at) / Fold change /veh FAM167A (11723789_a_at) / RFU FAM26E (11764081_at) / Fold change /veh FAM26E (11764081_at) / RFU ISYNA1 (11749810_s_at) / Fold change /veh ISYNA1 (11749810_s_at) / RFU ACY1 (11761880_at) / Fold change /veh ACY1 (11761880_at) / RFU 11764098_at / Fold change /veh 11764098_at / RFU SAMD14 (11745864_x_at) / Fold change /veh SAMD14 (11745864_x_at) / RFU NPB (11741838_a_at) / Fold change /veh NPB (11741838_a_at) / RFU TMPRSS6 (11731388_a_at) / Fold change /veh TMPRSS6 (11731388_a_at) / RFU KRTAP10-2 (11738614_at) / Fold change /veh KRTAP10-2 (11738614_at) / RFU ARHGAP8 /// PRR5-ARHGAP8 (11727945_x_at) / Fold change /veh ARHGAP8 /// PRR5-ARHGAP8 (11727945_x_at) / RFU KRTAP5-7 /// NADSYN1 (11734609_at) / Fold change /veh KRTAP5-7 /// NADSYN1 (11734609_at) / RFU RASL12 (11751679_a_at) / Fold change /veh RASL12 (11751679_a_at) / RFU CDKN2B (11736163_a_at) / Fold change /veh CDKN2B (11736163_a_at) / RFU PRF1 (11729649_at) / Fold change /veh PRF1 (11729649_at) / RFU, ZNF638 /// ZNF638-IT1 / Fold change vs veh, ZNF638 /// ZNF638-IT1 / RFU, PANK3 / Fold change vs veh, PANK3 / RFU, SH3YL1 / Fold change vs veh, SH3YL1 / RFU, ZEB2 / Fold change vs veh, ZEB2 / RFU, NRIP1 / Fold change vs veh, NRIP1 / RFU, PTTG1IP / Fold change vs veh, PTTG1IP / RFU, CAPN2 / Fold change vs veh, CAPN2 / RFU, MED14 / Fold change vs veh, MED14 / RFU, SNORA58 / Fold change vs veh, SNORA58 / RFU, C1orf63 / Fold change vs veh, C1orf63 / RFU, LRRFIP1 / Fold change vs veh, LRRFIP1 / RFU, NDUFAF7 / Fold change vs veh, NDUFAF7 / RFU, SLC12A2 / Fold change vs veh, SLC12A2 / RFU, IBTK / Fold change vs veh, IBTK / RFU, ESF1 / Fold change vs veh, ESF1 / Fold change vs veh, TMEM50B / RFU, TAOK1 / Fold change vs veh, TAOK1 / RFU, ACBD3 / Fold change vs veh, ACBD3 / RFU, TMA16 / Fold change vs veh, TMA16 / RFU, RWDD3 / Fold change vs veh, RWDD3 / RFU, BCAT1 / Fold change vs veh, BCAT1 / RFU, EDEM3 / Fold change vs veh, EDEM3 / RFU, TMEM33 / Fold change vs veh, TMEM33 / RFU, WDR75 / Fold change vs veh, WDR75 / RFU, AHCTF1 / Fold change vs veh, AHCTF1 / RFU, TFRC / Fold change vs veh, TFRC / RFU, ZDHHC17 / Fold change vs veh, ZDHHC17 / RFU, NOM1 / Fold change vs veh, NOM1 / RFU, ARL8B / Fold change vs veh, ARL8B / RFU, ZBTB11 / Fold change vs veh, ZBTB11 / RFU, TAMM41 / Fold change vs veh, TAMM41 / RFU, KIAA1704 /// LOC100996395 / Fold change vs veh, KIAA1704 /// LOC100996395 / RFU, ING1 / Fold change vs veh, ING1 / RFU, TRMT61B / Fold change vs veh, TRMT61B / RFU, FUBP3 / Fold change vs veh, FUBP3 / RFU, TP53 / Fold change vs veh, TP53 / RFU, TNKS2 / Fold change vs veh, TNKS2 / RFU, ZFP14 / Fold change vs veh, ZFP14 / RFU, ACTR2 / Fold change vs veh, ACTR2 / RFU, PPP3R1 / Fold change vs veh, PPP3R1 / RFU, PIK3R1 / Fold change vs veh, PIK3R1 / RFU, HNRNPA1 / Fold change vs veh, HNRNPA1 / RFU, RNF170 / Fold change vs veh, RNF170 / RFU, ZNF28 / Fold change vs veh, ZNF28 / RFU, RNGTT / Fold change vs veh, RNGTT / RFU, OGT / Fold change vs veh, OGT / RFU, BRD1 / Fold change vs veh, BRD1 / RFU, MARS / Fold change vs veh, MARS / RFU, ZNF655 / Fold change vs veh, ZNF655 / RFU, FAHD1 / Fold change vs veh, FAHD1 / RFU, BDP1 / Fold change vs veh, BDP1 / RFU, LRRCC1 / Fold change vs veh, LRRCC1 / RFU, ARID1A / Fold change vs veh, ARID1A / RFU, ZNF146 / Fold change vs veh, ZNF146 / RFU, ZNF330 / Fold change vs veh, ZNF330 / RFU, GPN3 / Fold change vs veh, GPN3 / RFU, C9orf123 / Fold change vs veh, C9orf123 / RFU, N4BP2L2 / Fold change vs veh, N4BP2L2 / RFU, ARFIP1 / Fold change vs veh, ARFIP1 / RFU, FAM179B / Fold change vs veh, FAM179B / RFU, BCL10 / Fold change vs veh, BCL10 / RFU, UHRF1BP1L / Fold change vs veh, UHRF1BP1L / RFU, BET1 / Fold change vs veh, BET1 / RFU, CNOT2 / Fold change vs veh, CNOT2 / RFU, ZNF268 / Fold change vs veh, ZNF268 / Fold change vs veh, ZNF507 / RFU, DGCR2 / Fold change vs veh, DGCR2 / RFU, WDSUB1 / Fold change vs veh, WDSUB1 / Fold change vs veh, HSP90B1 /// MIR3652 / RFU, ADSS / Fold change vs veh, ADSS / RFU, GK / Fold change vs veh, GK / RFU, ZNF148 / Fold change vs veh, ZNF148 / RFU, TAF9 / Fold change vs veh, TAF9 / RFU, SLC1A5 / Fold change vs veh, SLC1A5 / RFU, SLMO2 / Fold change vs veh, SLMO2 / RFU, ABCC4 / Fold change vs veh, ABCC4 / RFU, LOC101060439 /// RAP1B / Fold change vs veh, LOC101060439 /// RAP1B / RFU, RFX7 / Fold change vs veh, RFX7 / RFU, GTPBP10 / Fold change vs veh, GTPBP10 / RFU, CNEP1R1 / Fold change vs veh, CNEP1R1 / RFU, BIVM-ERCC5 /// ERCC5 / Fold change vs veh, BIVM-ERCC5 /// ERCC5 / RFU, ILF3 / Fold change vs veh, ILF3 / RFU 11762660_at / Fold change /veh 11762660_at / RFU VCAN (11757783_s_at) / Fold change /veh VCAN (11757783_s_at) / RFU DDX43 (11728927_at) / Fold change /veh DDX43 (11728927_at) / RFU KRT8 (11758188_x_at) / Fold change /veh KRT8 (11758188_x_at) / RFU NKD1 (11759106_at) / Fold change /veh NKD1 (11759106_at) / RFU SRD5A1 (11742802_a_at) / Fold change /veh SRD5A1 (11742802_a_at) / RFU TPSAB1 /// TPSB2 (11721975_s_at) / Fold change /veh TPSAB1 /// TPSB2 (11721975_s_at) / RFU GSTM3 (11746129_a_at) / Fold change /veh GSTM3 (11746129_a_at) / RFU IL23R (11737362_x_at) / Fold change /veh IL23R (11737362_x_at) / RFU TMEM51 (11727254_a_at) / Fold change /veh TMEM51 (11727254_a_at) / RFU PIWIL2 (11732686_x_at) / Fold change /veh PIWIL2 (11732686_x_at) / RFU ORM1 (11744905_x_at) / Fold change /veh ORM1 (11744905_x_at) / RFU CCDC152 (11743942_at) / Fold change /veh CCDC152 (11743942_at) / RFU ECM1 (11717891_a_at) / Fold change /veh ECM1 (11717891_a_at) / RFU IL23R (11748794_a_at) / Fold change /veh IL23R (11748794_a_at) / RFU TNFAIP8L3 (11732012_x_at) / Fold change /veh TNFAIP8L3 (11732012_x_at) / RFU MBOAT4 (11741988_at) / Fold change /veh MBOAT4 (11741988_at) / RFU 11764193_at / Fold change /veh 11764193_at / RFU TMEM53 (11763286_at) / Fold change /veh TMEM53 (11763286_at) / RFU MAGEB2 (11727129_at) / Fold change /veh MAGEB2 (11727129_at) / RFU TMEM200A (11744735_a_at) / Fold change /veh TMEM200A (11744735_a_at) / RFU CCDC152 (11751479_a_at) / Fold change /veh CCDC152 (11751479_a_at) / RFU FAM211A (11726209_a_at) / Fold change /veh FAM211A (11726209_a_at) / RFU RGS16 (11746705_a_at) / Fold change /veh RGS16 (11746705_a_at) / RFU VCAN (11755009_s_at) / Fold change /veh VCAN (11755009_s_at) / RFU RHOB (11743442_s_at) / Fold change /veh RHOB (11743442_s_at) / RFU RGS16 (11720943_a_at) / Fold change /veh RGS16 (11720943_a_at) / RFU RGS16 (11720944_at) / Fold change /veh RGS16 (11720944_at) / RFU, VPS4B / Fold change vs veh, VPS4B / RFU, CREB1 / Fold change vs veh, CREB1 / RFU, DNAJC13 / Fold change vs veh, DNAJC13 / RFU, GNAQ / Fold change vs veh, GNAQ / RFU, CDK5R1 / Fold change vs veh, CDK5R1 / RFU, ZRANB3 / Fold change vs veh, ZRANB3 / RFU, CUL4A / Fold change vs veh, CUL4A / RFU, CCNY / Fold change vs veh, CCNY / RFU, UFL1 / Fold change vs veh, UFL1 / RFU, COG3 / Fold change vs veh, COG3 / RFU, DIAPH2 / Fold change vs veh, DIAPH2 / RFU, SKA2 / Fold change vs veh, SKA2 / RFU, AFF3 / Fold change vs veh, AFF3 / RFU, LMF1 / Fold change vs veh, LMF1 / RFU, IPO11 / Fold change vs veh, IPO11 / RFU, DFFB / Fold change vs veh, DFFB / RFU, FOXP1 / Fold change vs veh, FOXP1 / RFU, CARD8 / Fold change vs veh, CARD8 / RFU, STRN3 / Fold change vs veh, STRN3 / RFU, ADK / Fold change vs veh, ADK / RFU, RASSF2 / Fold change vs veh, RASSF2 / RFU, WIPF1 / Fold change vs veh, WIPF1 / RFU, LARP1B / Fold change vs veh, LARP1B / RFU, RASA1 / Fold change vs veh, RASA1 / RFU, RB1 / Fold change vs veh, RB1 / RFU, PPFIA1 / Fold change vs veh, PPFIA1 / RFU, MAT2A / Fold change vs veh, MAT2A / RFU, CCT5 / Fold change vs veh, CCT5 / RFU, WDR92 / Fold change vs veh, WDR92 / RFU, CUX1 / Fold change vs veh, CUX1 / RFU, TTC7A / Fold change vs veh, TTC7A / RFU, TMEM135 / Fold change vs veh, TMEM135 / RFU, DEPTOR / Fold change vs veh, DEPTOR / RFU, CPM / Fold change vs veh, CPM / RFU, DNAJB6 / Fold change vs veh, DNAJB6 / RFU, CACNA2D3 / Fold change vs veh, CACNA2D3 / RFU, DTX4 / Fold change vs veh, DTX4 / RFU, TFCP2 / Fold change vs veh, TFCP2 / RFU, GMCL1 /// GMCL1P1 / Fold change vs veh, GMCL1 /// GMCL1P1 / RFU, AEBP2 / Fold change vs veh, AEBP2 / RFU, SNHG1 /// SNORD22 /// SNORD25 /// SNORD26 /// SNORD27 /// SNORD28 /// SNORD29 /// SNORD31 / Fold change vs veh, SNHG1 /// SNORD22 /// SNORD25 /// SNORD26 /// SNORD27 /// SNORD28 /// SNORD29 /// SNORD31 / Fold change (Aza/veh), C12orf56 (ProbeSet 11735607_a_at) / Fold change (ACY-1035/veh), C12orf56 (ProbeSet 11735607_a_at) / Fold change (Aza/veh), FGFR1OP (ProbeSet 11751329_s_at) / Fold change (ACY-1035/veh), FGFR1OP (ProbeSet 11751329_s_at) / Fold change (Aza/veh), VPS36 (ProbeSet 11739960_a_at) / Fold change (ACY-1035/veh), VPS36 (ProbeSet 11739960_a_at) / RFU SYPL1 (11715823_x_at) / Fold change /veh SYPL1 (11715823_x_at) / RFU IGFBP7 (11715501_s_at) / Fold change /veh IGFBP7 (11715501_s_at) / RFU REEP3 (11722064_at) / Fold change /veh REEP3 (11722064_at) / RFU IGLL1 (11728026_x_at) / Fold change /veh IGLL1 (11728026_x_at): dose or concentration left out as unconfirmed
Settings: MV-4-11 cells, 48 hours

Nc1ncn([C@@H]2O[C@H](CO)[C@@H](O)[C@H]2O)c(=O)n1 [azacitidine]
Fold change /veh VPS37D (11726825_at): 1.12
